Assay results as given in US7781454B2 (priority 2006, dated 2010).
pIC50: −log10 of the molar value. Counter-ions that a name gives are not always drawn. Like-named read-outs stand apart in the source and are kept apart here.

Legend:
[1] = molecular target: HIV-1 RT enzyme (wild-type) (Human immunodeficiency virus type 1 group M subtype B, UniProt P04585); experiment: ECL assay for inhibition of HIV reverse transcriptase (WT); type: biochemical
Method: (§1) 100 μL reaction mixtures were initiated with a combination of primer-template substrate ([…]) and dNTPs (0.6 μM dNTPs, 1.25 μM BrdUTP). The heterodimeric nucleic acid substrate was generated by annealing the DNA primer pD500 (described in Shaw-Reid et al., J. Biol. Chem., 278: 2777-2780; obtained from Integrated DNA Technologies) to t500, a 500 nucleotide RNA template created by in vitro transcription (see Shaw-Reid et al., J. Biol. Chem., 278: 2777-2780). After 1 hour incubation at 37° C., reactions were quenched by 10 μL of 1 N NaOH. Microtiter plates were incubated for an additional 30 minutes at room temperature and then neutralized with 10 μL of 1 N HCl. A mixture of detection buffer containing ruthenylated anti-BrdU antibody and streptavidin coated magnetic beads were added to the plate and incubated at room temperature for 1.5 hours prior to quantification via electrochemiluminescence instrument.

[2] = molecular target: T1, mutant HIV reverse transcriptase (K103N mutation) (Human immunodeficiency virus type 1 group M subtype B, UniProt P04585, K690N); experiment: ECL assay for inhibition of mutant HIV reverse transcriptase (K103N); type: biochemical
T1 construct: against mutant HIV reverse transcriptase; made in house
Method: as §1
(§2) Analogous assays were conducted substituting mutant HIV strains to determine the in vitro inhibition of compounds of the present invention against mutant HIV reverse transcriptase. In one strain the reverse transcriptase has the Y181C mutation and in the other strain the reverse transcriptase has the K103N mutation. The mutations were generated with the QUIKCHANGE site-directed mutagenesis kit (Stratagene).

[3] = molecular target: T2, mutant HIV reverse transcriptase (Y181C mutation) (Human immunodeficiency virus type 1 group M subtype B, UniProt P04585, Y768C); experiment: ECL assay for inhibition of mutant HIV reverse transcriptase (Y181C); type: biochemical
T2 construct: against mutant HIV reverse transcriptase; made in house
Method: as §1, §2

wild type HIV-1 = experiment: Spread assay: inhibition of acute HIV-1 infection of T-lymphoid cells (WT); type: cell-based; details: Human immunodeficiency virus 1, T-lymphoid; wild-type strain; 10% FBS; read-out: Spread (WT) CIC95
Method: (§3) Assays for the inhibition of acute HIV-1 infection of T-lymphoid cells (alternatively referred to herein as the “spread assay”) were conducted in accordance with Vacca, J. P. et al., Proc. Natl. Acad. Sci. USA 1994, 91: 4096. The assays tested for inhibition of wild type HIV-1 and of HIV strains containing the Y181C or K103N mutation. […] The compounds of Examples 1 to 4 had CIC95 values of less than 10 micromolar in the assay employing the K103N mutant strain. […] Table C also reports the CIC95 values of the compounds of Examples 1-7, 9-13 and 15-29 obtained in the assays employing the Y181C mutant strain and the K103N mutant strain.

[4] = test system: HIV strain containing the K103N mutation; experiment: Spread assay: inhibition of HIV replication (K103N mutant strain); type: cell-based; details: Human immunodeficiency virus 1, read-out: Spread (K103N) CIC95
Method: as §3

[5] = test system: HIV strain containing the Y181C mutation; experiment: Spread assay: inhibition of HIV replication (Y181C mutant strain); type: cell-based; details: Human immunodeficiency virus 1, read-out: Spread (Y181C) CIC95
Method: as §3

[6] = K103N mutant RT, read-out: ECL Assay (K103N) IC50
[7] = Y181C mutant RT, read-out: ECL Assay (Y181C) IC50

Compound | pIC50 [1] | pIC50 [2, 6] | pIC50 [3, 7] | IC95 (wild type HIV-1) | IC95 [4] | IC95 [5] | pIC50 [2] | pIC50 [3]
N#Cc1cc(Cl)cc(Oc2c(Cl)ccc3c2cnn3Cc2n[nH]c3ncccc23)c1 [Example 1, 3-Chloro-5-{[5-chloro-1-(1H-pyrazolo[3,4-b]pyridin-3-ylmethyl)-1H-indazol-4-yl]oxy}benzonitrile] | 9.46 | 9.24 | 9.22 | 0.013 µM | 0.017 µM | 0.069 µM |  | 
N#Cc1cc(Cl)cc(Oc2c(Cl)ccc3c2c(Cl)nn3Cc2n[nH]c3ncccc23)c1 [Example 2, 3-Chloro-5-{[3,5-dichloro-1-(1H-pyrazolo[3,4-b]pyridin-3-ylmethyl)-1H-indazol-4-yl]oxy}benzonitrile] | 8.41 | 7.92 | 7.60 | 0.521 µM | 2.09 µM |  |  | 
N#Cc1cc(Cl)cc(Oc2c(Cl)ccc3c2cnn3Cc2n[nH]c3nc(N)ccc23)c1 [Example 3, 3-{[5-Chloro-4-(3-chloro-5-cyanophenoxy)-1H-indazol-1-yl]methyl}-1H-pyrazolo[3,4-b]pyridin-6-aminium chloride] | 9.22 | 8.77 | 8.72 | 0.009 µM | 0.023 µM | 0.077 µM |  | 
N#Cc1cc(Cl)cc(Oc2c(Cl)ccc3c2nnn3Cc2n[nH]c3ncccc23)c1 [Example 4, 3-chloro-5-{[5-chloro-1-(1H-pyrazolo[3,4-b]pyridin-3-ylmethyl)-1H-1,2,3-benzotriazol-4-yl]oxy}benzonitrile] | 9.62 | 9.39 | 9.36 | 0.004 µM | 0.005 µM | 0.024 µM |  | 
N#Cc1cc(Cl)cc(Oc2c(Cl)ccc3c2cnn3Cc2n[nH]c3c2ccc[n+]3[O-])c1 [Example 5, 3-chloro-5-({5-chloro-1-[(7-oxido-1H-pyrazolo[3,4-b]pyridin-3-yl)methyl]-1H-indazol-4-yl}oxy)benzonitrile] | 9.21 | 8.89 | 8.74 | 0.011 µM | 0.023 µM | 0.105 µM |  | 
CN(Cc1ccccc1Cl)C(=O)Cn1nnc2c(Oc3cc(Cl)cc(C#N)c3)c(Cl)ccc21 [Example 9, N-(2-chlorobenzyl)-2-[5-chloro-4-(3-chloro-5-cyanophenoxy)-1H-1,2,3-benzotriazol-1-yl]-N-methylacetamide] | 7.21 | 7.13 | 6.86 | 0.77 µM | 0.807 µM |  |  | 
N#Cc1cc(Cl)cc(Oc2c(Cl)ccc3c2nnn3CC(=O)c2cccnc2)c1 [Example 11, 3-chloro-5-{[5-chloro-1-(2-oxo-2-pyridin-3-ylethyl)-1H-1,2,3-benzotriazol-4-yl]oxy}benzonitrile] | 7.74 | 7.28 | 7.52 | 0.381 µM | 0.433 µM |  |  | 
N#Cc1cc(Cl)cc(Oc2c(Cl)ccc3c2nnn3CC(=O)OCc2ccccc2)c1 [Example 15] | 8.62 | 7.92 | 8.82 | > 0.833 µM | > 0.833 µM |  |  | 
N#Cc1cc(Cl)cc(Oc2c(Cl)ccc3c2nnn3CC(=O)N2CCCC(C(N)=O)C2)c1 (centres unmarked) [Example 16, 1-{[5-chloro-4-(3-chloro-5-cyanophenoxy)-1H-1,2,3-benzotriazol-1-yl]acetyl}piperidine-3-carboxamide] | 5.96 | < 5.74 | 6.10 | > 0.833 µM | > 0.833 µM |  |  | 
N#Cc1cc(Cl)cc(Oc2c(Cl)ccc3nn(Cc4n[nH]c5ncccc45)nc23)c1Cl [Example 20, 2,5-dichloro-3-{[5-chloro-2-(1H-pyrazolo[3,4-b]pyridin-3-ylmethyl)-2H-1,2,3-benzotriazol-4-yl]oxy}benzonitrile] | 8.68 | 7.26 | 8.60 | 0.42 µM | > 0.833 µM |  |  | 
NCc1cc(Cl)cc(Oc2c(Cl)ccc3c2nnn3Cc2n[nH]c3ncccc23)c1Cl [Example 21, 1-(2,5-dichloro-3-{[5-chloro-1-(1H-pyrazolo[3,4-b]pyridin-3-ylmethyl)-1H-1,2,3-benzotriazol-4-yl]oxy}phenyl)methanamine] |  | 8.38 |  | 0.058 µM | 0.192 µM | 0.417 µM |  | 
N#Cc1cc(Cl)cc(Oc2c(Cl)ccc3c2nnn3Cc2n[nH]c3nc(N)ccc23)c1Cl [Example 22, 3-({1-[(6-amino-1H-pyrazolo[3,4-b]pyridin-3-yl)methyl]-5-chloro-1H-1,2,3-benzotriazol-4-yl}oxy)-2,5-dichlorobenzonitrile] | 9.28 | 9.10 | 9.10 | 0.004 µM | 0.009 µM |  |  | 
N#Cc1cc(Cl)cc(Oc2c(Cl)ccc3c2nnn3Cc2nnc(-c3ccccc3)o2)c1 [Example 23, 3-chloro-5-({5-chloro-1-[(5-phenyl-1,3,4-oxadiazol-2-yl)methyl]-1H-1,2,3-benzotriazol-4-yl}oxy)benzonitrile] | 8.21 | 8.00 | 8.47 | 0.096 µM | > 0.833 µM |  |  | 
N#Cc1cc(Cl)cc(Oc2c(Cl)ccc3nn(Cc4nnc(-c5ccccc5)o4)nc23)c1 [Example 24, 3-chloro-5-({5-chloro-2-[(5-phenyl-1,3,4-oxadiazol-2-yl)methyl]-2H-1,2,3-benzotriazol-4-yl}oxy)benzonitrile] | 7.34 | 6.82 | 7.33 | > 0.833 µM | > 0.833 µM |  |  | 
Cc1ccn2c(Cc3n[nH]c4ncccc34)ncc2c1Oc1cc(Cl)cc(C#N)c1 [Example 25, 3-chloro-5-{[7-methyl-3-(1H-pyrazolo[3,4-b]pyridin-3-ylmethyl)imidazo[1,5-a]pyridin-8-yl]oxy}benzonitrile trifluoroacetate] | 7.70 |  |  | 0.115 µM | 0.362 µM |  | 7.43 | 7.48
Cc1ccn2c(Cc3n[nH]c4ncccc34)nnc2c1Oc1cc(Cl)cc(C#N)c1 [Example 26, 3-chloro-5-{[7-methyl-3-(1H-pyrazolo[3,4-b]pyridin-3-ylmethyl)[1,2,4]triazolo[4,3-a]pyridin-8-yl]oxy}benzonitrile trifluoroacetate] | 6.66 |  |  | > 0.833 µM | > 0.833 µM |  | 6.09 | 5.92
N#Cc1cc(Cl)cc(Oc2c(Cl)ccc3c2CCCN3Cc2n[nH]c3ncccc23)c1 [Example 27, 3-chloro-5-{[6-chloro-1-(1H-pyrazolo[3,4-b]pyridine-3-ylmethyl)-1,2,3,4-tetrahydroquinolin-5-yl]oxy}benzonitrile] | 6.80 | 6.19 | 6.80 | 3.28 µM | 7.73 µM |  |  | 
N#Cc1cc(Cl)cc(Oc2c(Cl)ccc3c2nnn3CCO)c1 [Example 28, 3-chloro-5-{[5-chloro-1-(2-hydroxyethyl)-1H-1,2,3-benzotriazol-4-yl]oxy}benzonitrile] | 7.17 | 6.68 | 7.11 | 0.557 µM | > 0.833 µM |  |  | 
N#Cc1cc(C#N)cc(Oc2c(Cl)ccc3c2nnn3Cc2n[nH]c3ncccc23)c1 [Example 29, 5-{[5-chloro-1-(1H-pyrazolo[3,4-b]pyridin-3-ylmethyl)-1H-1,2,3-benzotriazol-4-yl]oxy}isophthalonitrile] | 9.05 | 8.85 | 8.89 | 0.0025 µM | 0.0031 µM |  |  | 
